Laboratory results: US10829458B2 (Araxes Pharma LLC, priority 2015, dated 2020)

Legend:
Whole blood stability = type: in vitro ADME; details: 37° C., time points 0, 1, 2, 4 hr, LC/MS/MS; for half-life at 5 µM: mouse, whole blood, read-out: Whole Blood Stability (T1/2) hr. Mouse (converted)
Protocol: Test compounds were prepared as a 500 μM stock solution in DMSO (Adding 10 μl of 10 mM DMSO stock solution to 190 μl of 100% DMSO). Whole blood was thawed on ice. A whole blood plate was prepared by adding 460 μl of the whole blood (different species as needed) to a 96-well in ml deep well plate. The whole blood plate was preincubated at 37° C. for 10 min. 4 μl of compound solution and 396 μl of whole blood was added to the plate and mixed thoroughly. Each sample was aliquoted (30 μl) to the incubation plate (cluster tubes) and quenched at time zero with ice-cold 100% ACN, and the incubation plates were added to the 37° C. incubator (200 μl).
The time zero sample was maintained at 4° C. until centrifuged. All other samples were quench at different time points (1, 2, 4 hr), vortexed for 30 seconds and centrifuged at 3500 rpm for 15 min at 4° C. 30 μl of supernatant was added to 170 μl 0.1% FA aqueous solution and the sample was analyzes by LC/MS/MS.

[1] = molecular target: T1, KRAS G12C 1-169, his-tagged protein, GDP-loaded (Homo sapiens, UniProt P01116, G12C); test: Biochemical assay: covalent modification of KRAS G12C measured by mass spectrometry (RapidFire/TOF or Q-Exactive); details: covalent binding to KRAS G12C
T1 construct: KRAS G12C 1-169, his-tagged protein, GDP-loaded
How it was run: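 GDP-loaded his-tagged KRAS G12C 1-169 at 2 μM in 20 mM Hepes, 150 mM NaCl, 1 mM MgCl2 incubated at room temperature with compound (10, 30 or 100 μM final, 2% DMSO) for 30 min, 2 h or 24 h, then quenched with formic acid. Intact-protein LC-MS (RapidFire/TOF or Q-Exactive) with deconvolution quantified modified versus unmodified protein.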

Row | Structure (SMILES) | half-life at 5 µM (Whole blood stability) | Binding % ([1]; compounds of structure (III)) | Whole Blood Stability (T1/2) hr. Mouse (Whole blood stability) | Binding % ([1]; compounds of structure (I))
1 | C=CC(=O)N1[C@H](C)CN(c2ncnc3c(F)c(-c4c(O)cccc4F)c(Cl)cc23)C[C@H]1C [III-22, 1-((2R,6R)-4-(6-chloro-8-fluoro-7-(2-fluoro-6-hydroxy-phenyl)quinazolin-4-yl)-2,6-dimethyl-piperazin-1-yl)prop-2-en-1-one] | > 12 h | + (+ indicates binding activity up to 50%) | – | –
2 | C=CC(=O)N1CCN(c2ncnc3c(F)c(-c4c(O)cccc4F)c(Cl)cc23)C(C)(C)C1 [III-17, 1-(4-(6-chloro-8-fluoro-7-(2-fluoro-6-hydroxy-phenyl)quinazolin-4-yl)-3,3-dimethyl-piperazin-1-yl)prop-2-en-1-one] | 12.5 h | ++ (++ indicates activity from 50% to 90%) | – | –
3 | C=CC(=O)N1CCN(c2ncnc3c(F)c(-c4c(O)cccc4F)c(Cl)cc23)[C@@H](C)C1 [III-14, 1-((3S)-4-(6-chloro-8-fluoro-7-(2-fluoro-6-hydroxy-phenyl)quinazolin-4-yl)-3-methyl-piperazin-1-yl)prop-2-en-1-one] | – | ++ (++ indicates activity from 50% to 90%) | 6.2 h | –
4 | C=CC(=O)N1[C@H](C)CN(c2ncnc3c(F)c(-c4c(O)cccc4F)c(Cl)cc23)C[C@@H]1C [III-15, 1-((2S,6R)-4-(6-chloro-8-fluoro-7-(2-fluoro-6-hydroxy-phenyl)quinazolin-4-yl)-2,6-dimethyl-piperazin-1-yl)prop-2-en-1-one] | – | ++ (++ indicates activity from 50% to 90%) | 11.1 h | –
5 | C=CC(=O)N1C[C@H](C)N(c2ncnc3c(F)c(-c4c(O)cccc4F)c(Cl)cc23)[C@@H](C)C1 [III-37, 1-((3S,5S)-4-(6-chloro-8-fluoro-7-(2-fluoro-6-hydroxy-phenyl)quinazolin-4-yl)-3,5-dimethyl-piperazin-1-yl)prop-2-en-1-one] | 9.9 h | ++ (++ indicates activity from 50% to 90%) | – | –
6 | C=CC(=O)N1CCN(c2ncnc3c(F)c(-c4c(O)cccc4F)c(Cl)cc23)[C@@H](C)C1 (atropisomer, axis not shown) [III-23, 1-((S)-4-((R)-6-chloro-8-fluoro-7-(2-fluoro-6-hydroxy-phenyl)quinazolin-4-yl)-3-methyl-piperazin-1-yl)prop-2-en-1-one] | > 12 h | + (+ indicates binding activity up to 50%) | – | –
7 | C=CC(=O)N1CCN(c2ncnc3c(F)c(-c4c(O)cccc4F)c(Cl)cc23)C[C@H]1C [III-21, 1-((2R)-4-(6-chloro-8-fluoro-7-(2-fluoro-6-hydroxy-phenyl)quinazolin-4-yl)-2-methyl-piperazin-1-yl)prop-2-en-1-one] | > 12 h | ++ (++ indicates activity from 50% to 90%) | – | –
8 | C=CC(=O)N1[C@@H](C)CN(c2ncnc3c(F)c(-c4c(O)cccc4F)c(Cl)cc23)C[C@@H]1C [III-18, 1-((2S,6S)-4-(6-chloro-8-fluoro-7-(2-fluoro-6-hydroxy-phenyl)quinazolin-4-yl)-2,6-dimethyl-piperazin-1-yl)prop-2-en-1-one] | 8.8 h | + (+ indicates binding activity up to 50%) | – | –
9 | C=CC(=O)N1CCN(c2ncnc3c(F)c(-c4c(O)cccc4F)c(Cl)cc23)[C@@H](C)C1 (atropisomer, axis not shown) [III-24, 1-((S)-4-((S)-6-chloro-8-fluoro-7-(2-fluoro-6-hydroxy-phenyl)quinazolin-4-yl)-3-methyl-piperazin-1-yl)prop-2-en-1-one] | – | +++ (+++ indicates binding activity greater than 90%) | 10.4 h | –
10 | C=CC(=O)N1CCN(c2ncnc3c(F)c(-c4c(O)cccc4F)c(Cl)cc23)CC1 (atropisomer, axis not shown) [A, reference compound] | 3.99 h | – | – | –
11 | C=CC(=O)N1[C@H](C)CN(c2ncnc3c(F)c(-c4c(O)cccc4F)c(Cl)cc23)C[C@@H]1C (atropisomer, axis not shown) [III-29, 1-((2S,6R)-4-((R)-6-chloro-8-fluoro-7-(2-fluoro-6-hydroxy-phenyl)quinazolin-4-yl)-2,6-dimethyl-piperazin-1-yl)prop-2-en-1-one] | 10.9 h | + (+ indicates binding activity up to 50%) | – | –
12 | C=CC(=O)N1[C@H](C)CN(c2ncnc3c(F)c(-c4cc(O)cc5ccccc45)c(Cl)cc23)C[C@@H]1C [III-27, 1-((2S,6R)-4-(6-chloro-8-fluoro-7-(3-hydroxy-naphthalen-1-yl)quinazolin-4-yl)-2,6-dimethyl-piperazin-1-yl)prop-2-en-1-one] | – | +++ (+++ indicates binding activity greater than 90%) | – | –
13 | C=CC(=O)N1C[C@@H](C)N(c2ncnc3c(F)c(-c4c(O)cccc4F)c(Cl)cc23)[C@@H](C)C1 [III-28, 1-((3R,5S)-4-(6-chloro-8-fluoro-7-(2-fluoro-6-hydroxy-phenyl)quinazolin-4-yl)-3,5-dimethyl-piperazin-1-yl)prop-2-en-1-one] | – | +++ (+++ indicates binding activity greater than 90%) | – | –
14 | C=CC(=O)N1CCN(c2nc(OCc3ccc(C#N)nc3)nc3c(F)c(-c4c(O)cccc4F)c(Cl)cc23)CC1 [Example I-129, 5-((4-(4-acryloyl-piperazin-1-yl)-6-chloro-8-fluoro-7-(2-fluoro-6-hydroxyphenyl)quinazolin-2-yloxy)methyl) picolinonitrile] | – | – | – | +++ (+++ indicates binding activity greater than 90%)
15 | C=CC(=O)N1CCN(c2nc(OCCc3ccccn3)nc3c(F)c(-c4c(O)cccc4F)c(Cl)cc23)CC1 [Example I-45, 1-(4-(6-chloro-8-fluoro-7-(2-fluoro-6-hydroxyphenyl)-2-(2-(pyridin-2-yl)ethoxy)quinazolin-4-yl)piperazin-1-yl)prop-2-en-1-one] | – | – | – | +++ (+++ indicates binding activity greater than 90%)
16 | C=CC(=O)N1CCN(c2nc(NC3CN(C(C)C)C3)nc3c(F)c(-c4c(C)ccc5[nH]ncc45)c(Cl)cc23)CC1 [Example I-173, 1-(4-(6-chloro-8-fluoro-2-((1-isopropyl-azetidin-3-yl)amino)-7-(5-methyl-1H-indazol-4-yl)quinazolin-4-yl)piperazin-1-yl) prop-2-en-1-one] | – | – | – | + (+ indicates binding activity up to 50%)
17 | C=CC(=O)N1CCN(c2nc(OCCc3ncccn3)nc3c(F)c(-c4c(O)cccc4F)c(Cl)cc23)CC1 [Example I-140, 1-(4-(6-chloro-8-fluoro-7-(2-fluoro-6-hydroxyphenyl)-2-(2-(pyrimidin-2-yl)ethoxy)quinazolin-4-yl)piperazin-1-yl) prop-2-en-1-one] | – | – | – | +++ (+++ indicates binding activity greater than 90%)
18 | C=CC(=O)N1CCN(c2nc(OCc3cccnn3)nc3c(F)c(-c4c(O)cccc4F)c(Cl)cc23)CC1 [Example I-119, 1-(4-(6-chloro-8-fluoro-7-(2-fluoro-6-hydroxyphenyl)-2-(pyridazin-3-ylmethoxy)quinazolin-4-yl)piperazin-1-yl) prop-2-en-1-one] | – | – | – | + (+ indicates binding activity up to 50%)
19 | C=CC(=O)N1CCN(c2nc(NC3CCN(CC(F)F)CC3)nc3c(F)c(-c4c(C)ccc5[nH]ncc45)c(Cl)cc23)CC1 [Example I-167, 1-(4-(6-chloro-2-((1-(2,2-difluoroethyl)piperidin-4-yl)amino)-8-fluoro-7-(5-methyl-1H-indazol-4-yl)quinazolin-4-yl)piperazin-1-yl) prop-2-en-1-one] | – | – | – | ++ (++ indicates binding activity from 50 to 90%)
20 | C=CC(=O)N1CCN(c2nc(OCC3CCN(C4CC4)CC3)nc3c(F)c(-c4c(C)ccc5[nH]ncc45)c(Cl)cc23)CC1 [Example I-203, 1-(4-(6-chloro-2-((1-cyclopropyl-piperidin-4-yl)methoxy)-8-fluoro-7-(5-methyl-1H-indazol-4-yl)quinazolin-4-yl)piperazin-1-yl) prop-2-en-1-one] | – | – | – | ++ (++ indicates binding activity from 50 to 90%)
21 | C=CC(=O)N1CCN(c2nc(OCCP(C)(C)=O)nc3c(F)c(-c4c(O)cccc4F)c(Cl)cc23)CC1 [Example I-206, 1-(4-(6-chloro-2-(2-(dimethyl-phosphoryl)ethoxy)-8-fluoro-7-(2-fluoro-6-hydroxyphenyl)quinazolin-4-yl)piperazin-1-yl) prop-2-en-1-one] | – | – | – | +++ (+++ indicates binding activity greater than 90%)
22 | C=CC(=O)N1CCN(c2nc(N)nc3c(F)c(-c4c(C)ccc5[nH]ncc45)c(Cl)cc23)CC1 [Example I-189, 1-(4-(2-amino-6-chloro-8-fluoro-7-(5-methyl-1H-indazol-4-yl)quinazolin-4-yl)piperazin-1-yl) prop-2-en-1-one] | – | – | – | ++ (++ indicates binding activity from 50 to 90%)
23 | C=CC(=O)N1CCN(c2nc(OCCN3CCS(=O)(=O)CC3)nc3c(F)c(-c4c(O)cccc4F)c(Cl)cc23)CC1 [Example I-67, 1-(4-(6-chloro-8-fluoro-7-(2-fluoro-6-hydroxyphenyl)-2-(2-dioxothio-morpholino-ethoxy)quinazolin-4-yl)piperazin-1-yl)prop-2-en-1-one] | – | – | – | +++ (+++ indicates binding activity greater than 90%)
